Results taken from US12428394B2, “2,4-disubstituted pyrimidine derivative, preparation method therefor and use thereof” (CHENGDU ZENITAR BIOMEDICAL TECHNOLOGY CO., LTD., priority 2019, dated 2025).
Read-outs that look alike come from different tables or passages of the source.

What was measured:
[1] = test system: MV4-11 cells (FLT3-ITD+/+); assay: Inhibition of cell proliferation by MTT experiment, MV4-11; assay type: cell-based, human; conditions: MTT, 72 h, read-out: IC50 value on cell proliferation inhibition, MV4-11 FLT3-ITD+/+
Procedure, shortened: (§1)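 MTT assay in MV4-11, MOLM-13 (FLT3-ITD) and SET-2 (JAK2 V617F) cells at 10,000–15,000 cells/well in IMDM with 10% FBS. Cells are exposed to compound for 72 h at 37 °C, then to MTT for 1–3 h. IC50 is fitted from inhibition rates across concentrations.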

[2] = target: T1, JAK2 (Homo sapiens, UniProt O60674); assay: In vitro kinase activity experiment, JAK2; assay type: biochemical; conditions: inhibition rate of enzyme at 500 nM; measured by Eurofins
T1 construct: purchased Eurofins
T1 sequence (O60674 whole entry): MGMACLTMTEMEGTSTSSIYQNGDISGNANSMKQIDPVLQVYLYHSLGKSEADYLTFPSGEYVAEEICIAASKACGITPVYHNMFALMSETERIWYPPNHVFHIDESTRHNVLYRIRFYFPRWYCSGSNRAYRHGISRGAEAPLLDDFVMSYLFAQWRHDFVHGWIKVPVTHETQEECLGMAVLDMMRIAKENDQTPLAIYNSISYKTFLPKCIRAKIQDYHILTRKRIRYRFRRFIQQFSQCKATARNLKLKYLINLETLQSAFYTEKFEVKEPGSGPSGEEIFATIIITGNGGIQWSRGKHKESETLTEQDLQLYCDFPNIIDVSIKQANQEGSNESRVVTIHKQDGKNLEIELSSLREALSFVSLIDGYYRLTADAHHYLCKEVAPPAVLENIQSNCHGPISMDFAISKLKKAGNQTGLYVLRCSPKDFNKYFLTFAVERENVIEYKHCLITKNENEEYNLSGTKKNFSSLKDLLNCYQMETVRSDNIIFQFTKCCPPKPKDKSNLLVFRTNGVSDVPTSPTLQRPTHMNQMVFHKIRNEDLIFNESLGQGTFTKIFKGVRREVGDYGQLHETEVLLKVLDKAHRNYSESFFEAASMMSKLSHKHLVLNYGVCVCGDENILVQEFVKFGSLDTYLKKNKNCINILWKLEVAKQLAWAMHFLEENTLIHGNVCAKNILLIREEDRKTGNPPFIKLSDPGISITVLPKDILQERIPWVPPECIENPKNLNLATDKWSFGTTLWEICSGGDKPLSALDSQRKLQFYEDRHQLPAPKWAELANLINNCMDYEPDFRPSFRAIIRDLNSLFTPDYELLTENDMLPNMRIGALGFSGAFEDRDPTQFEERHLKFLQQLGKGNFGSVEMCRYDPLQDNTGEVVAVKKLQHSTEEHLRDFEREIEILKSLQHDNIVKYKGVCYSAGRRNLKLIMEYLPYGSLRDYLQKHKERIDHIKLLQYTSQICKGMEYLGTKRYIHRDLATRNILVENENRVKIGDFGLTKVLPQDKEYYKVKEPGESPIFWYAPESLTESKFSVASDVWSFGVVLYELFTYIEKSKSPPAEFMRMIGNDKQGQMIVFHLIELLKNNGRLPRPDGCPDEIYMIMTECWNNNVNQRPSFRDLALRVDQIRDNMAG
Procedure, shortened: (§2)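 Radiometric filter-binding kinase assay: each kinase with its substrate, γ33P-ATP, 10 mM magnesium acetate and graded compound in 8 mM MOPS pH 7.0, 0.2 mM EDTA, 10 mM MnCl2. MgATP-started, 40 min at room temperature, stopped with 3% phosphate. Spotted on Filtermat A, washed, scintillation-counted.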

[3] = target: T2, FLT3 (Homo sapiens, UniProt P36888); assay: In vitro kinase activity experiment, FLT3; assay type: biochemical; conditions: inhibition rate of enzyme at 500 nM, measured by Eurofins; for inhibition at 0.5 µM: 40 min, read-out: Kinase activity @ 500 nM (%) FLT3
T2 construct: purchased Eurofins
T2 sequence (P36888 27-993): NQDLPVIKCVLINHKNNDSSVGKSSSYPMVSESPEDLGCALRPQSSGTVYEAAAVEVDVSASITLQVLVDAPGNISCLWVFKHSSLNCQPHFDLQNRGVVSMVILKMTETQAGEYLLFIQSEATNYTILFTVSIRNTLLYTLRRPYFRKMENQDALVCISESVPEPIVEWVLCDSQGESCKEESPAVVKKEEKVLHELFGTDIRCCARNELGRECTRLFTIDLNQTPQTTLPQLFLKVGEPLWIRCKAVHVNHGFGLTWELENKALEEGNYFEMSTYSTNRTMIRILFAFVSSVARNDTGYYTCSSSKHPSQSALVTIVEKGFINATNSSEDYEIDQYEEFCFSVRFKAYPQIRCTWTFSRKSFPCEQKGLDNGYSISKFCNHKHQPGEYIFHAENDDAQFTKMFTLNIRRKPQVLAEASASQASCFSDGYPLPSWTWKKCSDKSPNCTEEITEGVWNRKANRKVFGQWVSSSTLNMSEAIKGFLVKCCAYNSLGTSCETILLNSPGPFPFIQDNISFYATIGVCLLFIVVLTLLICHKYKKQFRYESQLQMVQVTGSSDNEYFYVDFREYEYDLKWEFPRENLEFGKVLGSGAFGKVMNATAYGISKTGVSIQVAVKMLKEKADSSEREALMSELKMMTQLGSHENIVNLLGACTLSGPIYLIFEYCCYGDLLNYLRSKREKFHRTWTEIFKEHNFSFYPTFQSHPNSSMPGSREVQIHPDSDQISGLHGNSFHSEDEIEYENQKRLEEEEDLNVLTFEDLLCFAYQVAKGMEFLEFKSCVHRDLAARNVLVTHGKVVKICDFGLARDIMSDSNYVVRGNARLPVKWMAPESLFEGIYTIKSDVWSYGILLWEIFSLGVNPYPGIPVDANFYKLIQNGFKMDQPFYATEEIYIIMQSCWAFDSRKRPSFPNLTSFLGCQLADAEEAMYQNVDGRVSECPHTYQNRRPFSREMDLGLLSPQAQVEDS
Procedure, shortened: as §2

[4] = test system: SET-2 cells (JAK2 V617F); assay: Inhibition of cell proliferation by MTT experiment, SET-2; assay type: cell-based; conditions: MTT, 72 h, read-out: IC50 value on cell proliferation inhibition, SET-2 (V617F)
Procedure, shortened: as §1

[5] = test system: MOLM-13 cells (FLT3-ITD-/+); assay: Inhibition of cell proliferation by MTT experiment, MOLM-13; assay type: cell-based, human; conditions: MTT, 72 h, read-out: IC50 value on cell proliferation inhibition, MOLM-13 FLT3-ITD-/+
Procedure, shortened: as §1

IC50 ([1]; Homo sapiens, MV4-11) | Kinase activity @ 500 nM (%) JAK2 [2] | inhibition at 0.5 µM [3] | IC50 ([5]; Homo sapiens, MOLM-13) | Structure (SMILES) | IC50 ([4]; Homo sapiens, SET-2) | IC50 [1] | Kinase activity @ 500 nM (%) FLT3 [3] | IC50 [4] | IC50 [5]
1 to 10 nM | 95% | 96% | 10 to 100 nM | Cc1cnc(Nc2ccc(N3CCC(N(C)CCN4CCN(C(C)C)CC4)CC3)c(F)c2)nc1-c1cnn(C(C)C)c1 [CLJ-58, N-(3-fluoro-4-(4-(methyl (4-isopropyl-1-piperazine ethyl)amino)piperidine-1-yl)phenyl)-4-(1-isopropyl-1H-pyrazole-4-yl)-5-methylpyrimidine-2-amine] | 100 to 1000 nM |  |  |  | 
1 to 10 nM | 98% | 97% | 100 to 1000 nM | CCN(CCN1CCOCC1)C1CCN(c2ccc(Nc3ncc(C)c(-c4cnn(C(C)C)c4)n3)cc2F)CC1 [CLJ-59, N-(3-fluoro-4-(4-(ethyl(morpholinoethyl)amino)piperidine-1-yl)phenyl)-4-(1-isopropyl-1H-pyrazole-4-yl)-5-methylpyrimidine-2-amine] | 100 to 1000 nM |  |  |  | 
10 to 100 nM | 90% | 89% | 10 to 100 nM | Cc1cnc(Nc2ccc(N3CCC[C@@H](N(C)C(=O)CCC#N)C3)c(F)c2)nc1-c1cnn(C(C)C)c1 [CLJ-65, (R)-3-cyano-N-(1-(2-fluoro-4-((4-(1-isopropyl-1H-pyrazole-4-yl)-5-methylpyrimidine-2-yl)amino)phenyl)piperidine-3-yl)-N-methylpropionamide] | 100 to 1000 nM |  |  |  | 
1 to 10 nM | 91% | 93% | 10 to 100 nM | CCN1CC2(CCN(c3ccc(Nc4ncc(C)c(-c5cnn(C(C)C)c5)n4)cc3F)CC2)C1 [CLJ-71, N-(3-fluoro-4-(2,7-diazaspiro [3.5]nonane-2-ethyl-7-yl)phenyl)-4-(1-isopropyl-1H-pyrazole-4-yl)-5-methylpyrimidine-2-amine] | 100 to 1000 nM |  |  |  | 
10 to 100 nM | 92% | 92% | 10 to 100 nM | CCCN1CC2(CCN(c3ccc(Nc4ncc(C)c(-c5cnn(C(C)C)c5)n4)cc3F)CC2)C1 [CLJ-72, N-(3-fluoro-4-(2,7-diazaspiro [3.5]nonane-2-propyl-7-yl)phenyl)-4-(1-isopropyl-1H-pyrazole-4-yl)-5-methylpyrimidine-2-amine] | 100 to 1000 nM |  |  |  | 
100 to 1000 nM | 91% | 97% | 100 to 1000 nM | CCCCN1CC2(CCN(c3ccc(Nc4ncc(C)c(-c5cnn(C(C)C)c5)n4)cc3F)CC2)C1 [CLJ-73, N-(3-fluoro-4-(2,7-diazaspiro [3.5]nonane-2-butyl-7-yl)phenyl)-4-(1-isopropyl-1H-pyrazole-4-yl)-5-methylpyrimidine-2-amine] | 100 to 1000 nM |  |  |  | 
10 to 100 nM | 98% | 97% | 10 to 100 nM | CCCCCCN1CC2(CCN(c3ccc(Nc4ncc(C)c(-c5cnn(C(C)C)c5)n4)cc3F)CC2)C1 [CLJ-74, N-(3-fluoro-4-(2,7-diazaspiro [3.5]nonane-2-hexyl-7-yl)phenyl)-4-(1-isopropyl-1H-pyrazole-4-yl)-5-methylpyrimidine-2-amine] | 10 to 100 nM |  |  |  | 
100 to 1000 nM | 59% | 67% | 100 to 1000 nM | Cc1cnc(Nc2ccc(N3CCC4(CC3)CN(C3CCCC3)C4)c(F)c2)nc1-c1cnn(C(C)C)c1 [CLJ-76, N-(3-fluoro-4-(2,7-diazaspiro [3.5]nonane-2-cyclopentyl-7-yl)phenyl)-4-(1-isopropyl-1H-pyrazole-4-yl)-5-methylpyrimidine-2-amine] | 100 to 1000 nM |  |  |  | 

Second part, the compound before the results:

Structure (SMILES) | IC50 ([1]; Homo sapiens, MV4-11) | Kinase activity @ 500 nM (%) JAK2 [2] | inhibition at 0.5 µM [3] | IC50 ([5]; Homo sapiens, MOLM-13) | IC50 ([4]; Homo sapiens, SET-2) | IC50 [1] | Kinase activity @ 500 nM (%) FLT3 [3] | IC50 [4] | IC50 [5]
CCCN1CCN(CCN(C)C2CCN(c3ccc(Nc4ncc(C)c(-c5cnn(C(C)C)c5)n4)cc3F)CC2)CC1 [CLJ-57, N-(3-fluoro-4-(4-(methyl (4-propyl-1-piperazine ethyl)amino)piperidine-1-yl)phenyl)-4-(1-isopropyl-1H-pyrazole-4-yl)-5-methylpyrimidine-2-amine] | 1 to 10 nM | 97% | 96% | 10 to 100 nM | 100 to 1000 nM |  |  |  | 
CCCN(CCN1CCOCC1)C1CCN(c2ccc(Nc3ncc(C)c(-c4cnn(C(C)C)c4)n3)cc2F)CC1 [CLJ-60, N-(3-fluoro-4-(4-(propyl(morpholinoethyl)amino)piperidine-1-yl)phenyl)-4-(1-isopropyl-1H-pyrazole-4-yl)-5-methylpyrimidine-2-amine] | 1 to 10 nM | 100% | 97% | 10 to 100 nM | 100 to 1000 nM |  |  |  | 
Cc1cnc(Nc2ccc(N3CCC(CN(C)CCN4CCOCC4)CC3)c(F)c2)nc1-c1cnn(C(C)C)c1 [CLJ-61, N-(3-fluoro-4-(4-(methyl(morpholinoethyl)aminomethyl)piperidine-1-yl)phenyl)-4-(1-isopropyl-1H-pyrazole-4-yl)-5-methylpyrimidine-2-amine] | 1 to 10 nM | 99% | 98% | 10 to 100 nM | 100 to 1000 nM |  |  |  | 
Cc1cnc(Nc2ccc(N3CCC4(CC3)CNC4)c(F)c2)nc1-c1cnn(C(C)C)c1 [CLJ-66, N-(3-fluoro-4-(2,7-diazaspiro[3.5]nonane-7-yl)phenyl)-4-(1-isopropyl-1H-pyrazole-4-yl)-5-methylpyrimidine-2-amine] | 10 to 100 nM | 93% | 94% | 100 to 1000 nM | 100 to 1000 nM |  |  |  | 
Cc1cnc(Nc2ccc(N3CCC4(CC3)CN(CCO)C4)c(F)c2)nc1-c1cnn(C(C)C)c1 [CLJ-67, N-(3-fluoro-4-(2,7-diazaspiro[3.5]nonane-2-hydroxyethyl-7-yl)phenyl)-4-(1-isopropyl-1H-pyrazole-4-yl)-5-methylpyrimidine-2-amine] |  | 96% |  |  |  | 10 to 100 nM | 98% | 100 to 1000 nM | 100 to 1000 nM
CCCC(O)CN1CC2(CCN(c3ccc(Nc4ncc(C)c(-c5cnn(C(C)C)c5)n4)cc3F)CC2)C1 (centres unmarked) [CLJ-70, N-(3-fluoro-4-(2,7-diazaspiro [3.5]nonane-2-hydroxypentyl-7-yl)phenyl)-4-(1-isopropyl-1H-pyrazol-4-yl)-5-methylpyrimidine-2-amine] |  | 90% |  |  |  | 10 to 100 nM | 91% | 100 to 1000 nM | 10 to 100 nM
Cc1cnc(Nc2ccc(N3CCC4(CC3)CN(C(C)C)C4)c(F)c2)nc1-c1cnn(C(C)C)c1 [CLJ-75, N-(3-fluoro-4-(2,7-diazaspiro [3.5]nonane-2-isopropyl-7-yl)phenyl)-4-(1-isopropyl-1H-pyrazole-4-yl)-5-methylpyrimidine-2-amine] | 1 to 10 nM | 96% | 99% | 1 to 10 nM | 10 to 100 nM |  |  |  | 
C=CC(=O)CCN1CC2(CCN(c3ccc(Nc4ncc(C)c(-c5cnn(C(C)C)c5)n4)cc3F)CC2)C1 [CLJ-77, 1-(7-(2-fluoro-4-((4-(1-isopropyl-1H-pyrazole-4-yl)-5-methylpyrimidine-2-yl)-amino)-phenyl)-2,7-diazaspiro [3.5]nonane-2-yl)-4-pentenamide] | 100 to 1000 nM | 54% | 55% | 100 to 1000 nM | 100 to 1000 nM |  |  |  | 
